In brackets after ≈: the same amount, converted by molar mass.
What was measured:
Assay type in all cases: functional
Fusarium verticillioides = experiment: Antifungal activity against Fusarium moniliforme
Lasiodiplodia theobromae = experiment: Antifungal activity against Botryodiplodia theobromae
Aspergillus flavus [1] = experiment: Antifungal activity against Aspergillus flavus; settings: for MIC: Aspergillus flavus
Candida = experiment: Antifungal activity against Candida spp
Cryptococcus neoformans [2] = experiment: Antifungal activity against Cryptococcus neoformans after 72 hrs by NCCLS broth microdilution method
[3] = system: Mycobacterium tuberculosis; experiment: Antibacterial activity against Mycobacterium tuberculosis
Staphylococcus aureus = experiment: Antibacterial activity against Staphylococcus aureus
Trichophyton rubrum = experiment: Antifungal activity against Trichophyton rubrum
Trichophyton tonsurans = experiment: Antifungal activity against Trichophyton tonsurans
Candida albicans [4] = experiment: Antifungal activity against Candida albicans; settings: Candida albicans
Candida parapsilosis [5] = experiment: Antifungal activity against Candida parapsilosis ATCC 22019; settings: Lodderomyces parapsilosis
Sporothrix schenckii = experiment: Antifungal activity against Sporothrix schenckii
Aspergillus fumigatus [6] = experiment: Antifungal activity against Aspergillus fumigatus
Candida tropicalis = experiment: Antifungal activity against Candida tropicalis
Candida parapsilosis [7] = experiment: Antifungal activity against Candida parapsilosis; settings: Lodderomyces parapsilosis
Microsporum canis = experiment: Antifungal activity against Microsporum canis
[8] = Antifungal activity against Fonsecaea compacta
Cryptococcus neoformans [9] = experiment: Antifungal activity against Cryptococcus neoformans
Microsporum = experiment: Antifungal activity against Microsporum […]
Candida albicans [10] = experiment: Antifungal activity against Candida albicans relative to fluconazole
Aspergillus fumigatus [11] = experiment: Antifungal activity against Aspergillus fumigatus relative to fluconazole
Aspergillus niger [12] = experiment: Antifungal activity against Aspergillus niger
Aspergillus flavus [13] = experiment: Antifungal activity against Aspergillus flavus assessed as growth inhibition
Aspergillus niger [14] = experiment: Antifungal activity against Aspergillus niger assessed as growth inhibition
Aspergillus fumigatus [15] = experiment: Antifungal activity against Aspergillus fumigatus AF980003
Candida albicans [16] = experiment: Ratio of compound MIC to itraconazole MIC for Candida albicans CA980001
Candida albicans [17] = experiment: Antifungal activity against Candida albicans CA980001
Aspergillus fumigatus [18] = experiment: Ratio of compound MIC to itraconazole MIC for Aspergillus fumigatus AF980003
Aspergillus ochraceus = experiment: Antifungal activity against Aspergillus ochraceus
Aspergillus fumigatus [19] = experiment: Antifungal activity against Aspergillus fumigatus assessed as growth inhibition

Fc1ccc(N2OC(c3ccccc3)CC2c2ccc(-c3ccccc3)cc2)cc1 (centres undefined)
MIC (Fusarium verticillioides): 2.5 µg/mL (≈ 6.32 µM) | MIC (Lasiodiplodia theobromae): 2.5 µg/mL (≈ 6.32 µM) | MIC (Aspergillus flavus [1]): 2.5 µg/mL (≈ 6.32 µM)

CCOC(=O)C1(C)C2(C(=O)N(c3ccccc3)N=C2C)C1(c1ccccc1)c1ccccc1 (centres undefined)
MIC (Candida): 25 µg/mL (≈ 57 µM)

CN(C/C=C/C#CC(C)(C)C)Cc1cccc2ccccc12 [TERBINAFINE]
MIC50 (Cryptococcus neoformans [2]): 0.25 µg/mL (≈ 0.858 µM)

NC(=S)N1N=C(c2ccc(Cl)cc2)CC1c1cccnc1 (centres undefined)
MIC [3]: 6.25 µg/mL (≈ 19.7 µM) | MIC (Staphylococcus aureus): 128 µg/mL (≈ 404 µM)

CC1=NN(c2ccccc2)C(=O)C12C(C)(C#N)C2(c1ccccc1)c1ccccc1 (centres undefined)
MIC (Candida): 25 µg/mL (≈ 63.9 µM)

CCN(CC)C(=O)C1C2(C(=O)N(c3ccccc3)N=C2C)C1(c1ccccc1)c1ccccc1 (centres undefined)
MIC (Candida): 25 µg/mL (≈ 55.4 µM)

Clc1ccc(CN(Cc2ccc(-c3ccccc3)cc2)n2ccnc2)c(Cl)c1
MIC (Trichophyton rubrum): 0.8 µg/mL (≈ 1.96 µM)

Cc1ncc([N+](=O)[O-])n1CC(O)CCl (centres undefined) [ORNIDAZOLE]
MIC (Trichophyton tonsurans): 0.8 µg/mL (≈ 3.64 µM)

COc1ccc(N2OC(c3ccccc3)CC2c2ccc(-c3ccccc3)cc2)cc1 (centres undefined)
MIC (Fusarium verticillioides): 2.5 µg/mL (≈ 6.13 µM) | MIC (Lasiodiplodia theobromae): 2.5 µg/mL (≈ 6.13 µM) | MIC (Aspergillus flavus [1]): 2.5 µg/mL (≈ 6.13 µM)

Cc1cccc(C2=NN(C(N)=S)C(c3cccnc3)C2)c1 (centres undefined)
MIC [3]: 6.25 µg/mL (≈ 21.1 µM) | MIC (Staphylococcus aureus): 128 µg/mL (≈ 432 µM)

C[C@H](CCCN1C=NN(CC(O)(Cn2cncn2)c2ccc(F)cc2F)C1)[C@H]1CC[C@H]2[C@@H]3[C@H](O)C[C@@H]4CCCC[C@]4(C)[C@H]3CC[C@]12C (some centres undefined)
MIC (Candida albicans [4]): 2.18 µg/mL (≈ 3.34 µM) | MIC (Candida parapsilosis [5]): 2.18 µg/mL (≈ 3.34 µM) | MIC (Sporothrix schenckii): 2.18 µg/mL (≈ 3.34 µM)

N#Cc1ccc(N(CC(O)(Cn2cncn2)c2ccc(F)cc2F)C2CC2)cc1 (centres undefined)
MIC (Trichophyton rubrum): 0.125 µg/mL (≈ 0.316 µM) | MIC (Aspergillus fumigatus [6]): 0.125 µg/mL (≈ 0.316 µM) | MIC (Candida albicans [4]): 0.125 µg/mL (≈ 0.316 µM) | MIC (Candida tropicalis): 0.125 µg/mL (≈ 0.316 µM) | MIC (Candida parapsilosis [7]): 0.125 µg/mL (≈ 0.316 µM) | MIC (Microsporum canis): 0.125 µg/mL (≈ 0.316 µM) | MIC [8]: 0.125 µg/mL (≈ 0.316 µM) | MIC (Cryptococcus neoformans [9]): 0.125 µg/mL (≈ 0.316 µM)

CCC(C)n1ncn(-c2ccc(N3CCN(c4ccc(OCC5COC(Cn6cncn6)(c6ccc(Cl)cc6Cl)O5)cc4)CC3)cc2)c1=O (centres undefined) [ITRACONAZOLE]
MIC (Microsporum): 0.0625 µg/mL (≈ 0.0886 µM) | MIC (Trichophyton rubrum): 0.0625 µg/mL (≈ 0.0886 µM) | MIC (Candida): 2 µg/mL (≈ 2.83 µM) | MIC (Aspergillus fumigatus [6]): 0.0625 µg/mL (≈ 0.0886 µM) | MIC (Candida tropicalis): 0.0625 µg/mL (≈ 0.0886 µM) | MIC (Candida parapsilosis [7]): 0.0625 µg/mL (≈ 0.0886 µM) | MIC (Cryptococcus neoformans [9]): 0.0625 µg/mL (≈ 0.0886 µM)

CCN(CC)C(=O)C1(C)C2(C(=O)N(c3ccccc3)N=C2C)C1(c1ccccc1)c1ccccc1 (centres undefined)
MIC (Candida): 25 µg/mL (≈ 53.7 µM)

CCCCCCCCCC1C=C(CCC2C(OC)OC3COC(c4ccccc4)OC3C2CCC2CN(CCCCCCCCC)N=N2)N=N1 (centres undefined)
fold change (FC) (Candida albicans [10]): 14 | fold change (FC) (Aspergillus fumigatus [11]): 14

O=C(Nc1ccccc1-c1nnc(-c2ccc(O)cc2)o1)c1ccccc1
inhibition zone (IZ) (Aspergillus niger [12]): 15 mm | inhibition zone (IZ) (Aspergillus flavus [1]): 11 mm

CC1=NN(c2ccccc2)C(=O)C12C(C#N)C2(c1ccccc1)c1ccccc1 (centres undefined)
MIC (Candida): 25 µg/mL (≈ 66.2 µM)

NC(=O)c1ccc(COc2ccc(N3CCN(CC(O)(Cn4cncn4)c4ccccc4)CC3)cc2)cc1 (centres undefined)
MIC (Microsporum): 0.0625 µg/mL (≈ 0.122 µM) | MIC (Trichophyton rubrum): 0.0625 µg/mL (≈ 0.122 µM) | MIC (Aspergillus fumigatus [6]): 0.0625 µg/mL (≈ 0.122 µM) | MIC (Candida tropicalis): 0.0625 µg/mL (≈ 0.122 µM) | MIC (Candida parapsilosis [7]): 0.0625 µg/mL (≈ 0.122 µM) | MIC (Cryptococcus neoformans [9]): 0.0625 µg/mL (≈ 0.122 µM)

COc1ccc(N2OC(CO)CC2c2ccc(-c3ccccc3)cc2)cc1 (centres undefined)
MIC (Fusarium verticillioides): 2.5 µg/mL (≈ 6.92 µM) | MIC (Lasiodiplodia theobromae): 2.5 µg/mL (≈ 6.92 µM) | MIC (Aspergillus flavus [1]): 2.5 µg/mL (≈ 6.92 µM)

CN(CC(O)(Cn1cncn1)c1ccc(F)cc1F)C1CC1 (centres undefined)
MIC (Trichophyton rubrum): 0.125 µg/mL (≈ 0.405 µM) | MIC (Aspergillus fumigatus [6]): 0.125 µg/mL (≈ 0.405 µM) | MIC (Candida albicans [4]): 0.125 µg/mL (≈ 0.405 µM) | MIC (Candida tropicalis): 0.125 µg/mL (≈ 0.405 µM) | MIC (Candida parapsilosis [7]): 0.125 µg/mL (≈ 0.405 µM) | MIC (Microsporum canis): 0.125 µg/mL (≈ 0.405 µM) | MIC [8]: 0.125 µg/mL (≈ 0.405 µM) | MIC (Cryptococcus neoformans [9]): 0.125 µg/mL (≈ 0.405 µM)

N#CC(=C1CCCCC1)c1nc2cc(Cl)ccc2o1
growth inhibition (GI) (Aspergillus flavus [13]): 60% | growth inhibition (GI) (Aspergillus niger [14]): 60%

Clc1ccccc1Cn1cc(Cn2ccnc2)c2cc(Br)ccc21
MIC (Aspergillus fumigatus [15]): 8 µg/mL (≈ 20 µM) | Ratio (Candida albicans [16]): 16 | MIC (Candida albicans [17]): 8 µg/mL (≈ 20 µM) | Ratio (Aspergillus fumigatus [18]): 16

C[C@@H]1[C@H](O)[C@@H](C)/C=C/C=C/C=C/C=C/C=C/C=C/C=C/[C@H](O[C@@H]2O[C@H](C)[C@@H](O)[C@H](N)[C@@H]2O)C[C@@H]2O[C@](O)(C[C@@H](O)C[C@@H](O)[C@H](O)CC[C@@H](O)C[C@@H](O)CC(=O)O[C@H]1C)C[C@H](O)[C@H]2C(=O)O [AMPHOTERICIN B]
MIC (Cryptococcus neoformans [9]): 0.13 µg/mL (≈ 0.141 µM)

CC1=NN(c2ccccc2)C(=O)C12C(C(=O)OC(C)C)C2(c1ccccc1)c1ccccc1 (centres undefined)
MIC (Candida): 25 µg/mL (≈ 57 µM)

O=C1CCCC2=C1C(c1ccc(F)cc1)N1C(=O)CSC1=N2 (centres undefined)
MIC (Aspergillus ochraceus): 40 µg/mL (≈ 126 µM) | MIC (Aspergillus flavus [1]): 40 µg/mL (≈ 126 µM)

N=C1SC(c2ccc(Cl)cc2)c2cnn(C(=O)c3ccc(Cl)cc3)c2C1=N (centres undefined)
growth inhibition (GI) (Aspergillus fumigatus [19]): 61% | growth inhibition (GI) (Aspergillus niger [14]): 60%
